Results reported in US12421272B2, “Artificial nucleic acid, production method therefor, and use thereof” (SYSMEX CORPORATION, priority 2019, dated 2025).
Where “and” joins values, the source holds several entries; their conditions need not be identical. Equal entries are not always repeated.

Assays:
Assay type in all cases: binding
[1] = tested on: single-stranded DNA (5′-d(AGCAAAAAACGC)-3′; SEQ ID NO: 6); assay: Melting temperature (Tm), capability of forming double strand with single-stranded DNA; conditions: sense strand 5′-d(AGCAAAAAACGC)-3′; 100 nM NaCl, 10 mM sodium phosphate buffer (pH 7.2), 4 μM of each strand; 0.5° C./min.
[2] = tested on: single-stranded RNA (5′-r(AGCAAAAAACGC)-3′; SEQ ID NO: 7); conditions: pH 7.2
[3] = tested on: Target double-stranded DNA (DNA-1), 203-bp PCR product from pBR322 plasmid; assay: Strand invasion in the presence of SSB, gel shift assay; conditions: SSB 6 μM, oligonucleotide 200 nM, DNA-1 30 nM, 37° C. for 120, 60 or 30 minutes
Description: (§1) Target double-stranded DNA molecules are as follows. • (DNA-1) A 203-bp PCR product produced using pBR322 plasmid (commercially available product) as a template (SEQ ID NOs: 23 and 24). • (DNA-2) A 203-bp PCR product produced using artificial gene T1825G (commercially available product) based on pBR322 plasmid as a template. • (DNA-3) A 203-bp PCR product produced using artificial gene T1825C (commercially available product) based on pBR322 plasmid as a template. • (DNA-4) A 203-bp PCR product produced using artificial gene T1825A (commercially available product) based on pBR322 plasmid as a template.
Each of the sample solutions was reacted at 37° C. for 120 minutes, 60 minutes, or 30 minutes using a thermal cycler (StepOnePlus, Applied Biosystems).
After the completion of the reaction, two gels respectively having the sample solutions applied thereon prepared, and PAGE (Poly-Acrylamide Gel Electrophoresis) was carried out on the gels simultaneously under the following conditions. […]
After the completion of the electrophoresis, one of the gel was subjected to fluorescence staining (GelGreen Nucleic Acid Stain 10,000×, Biotium) for staining a nucleic acid, and the other gel was subjected to silver staining (EzStain Silver, ATTO corporation) for staining a nucleic acid and a protein simultaneously. […]

[4] = tested on: Target double-stranded DNA (DNA-1), 203-bp PCR product from pBR322 plasmid; assay: Strand invasion in the absence of SSB, gel shift assay; conditions: no SSB
Description: as §1
The reaction was carried out using a thermal cycler (StepOnePlus, Applied Biosystems), in which each of the sample solutions was cooled from 94° C. to 54° C. at a cooling rate of 2° C./30 seconds or was kept at 37° C. for a certain period (24 hours, 48 hours).
The condition that the sample solution was cooled from 94° C. to 54° C. at a cooling rate of 2° C./30 seconds was a condition where a target double-stranded DNA (in this case, a 203-bp PCR product) can be converted to a single strand by the action of a heat energy and strand invasion can be caused by cooling slowly. Therefore, the condition simulated the use in a gene analysis technique.
The condition that temperature is kept at 37° C. for a certain period simulated an in vivo reaction, and therefore simulated the use in a nucleic acid medicine or genome edition.
The same procedures as in the step (3) above were carried out. In this experiment, only the staining using GelGreen (fluorescence staining) was carried out.
The reaction was carried out using a thermal cycler (StepOnePlus, Applied Biosystems), in which each of the sample solutions was cooled from 94° C. to 54° C. at a cooling rate of 2° C./30 seconds.

Substance	Tm [1] [°C]	Tm [2]	occurrence of strand invasion [3]	occurrence of strand invasion ([4]; oligonucleotide 100 nM (3.3 equivalents), DNA-1 30 nM, cooled from 94° C. to 54° C. or left at 37° C.)	occurrence of strand invasion (comparison of strand invasion functionality) ([4]; oligonucleotide 100 nM, DNA-1 30 nM, cooled from 94° C. to 54° C. or kept at 37° C. (24 hours, 48 hours))	occurrence of strand invasion into the sequence for wild-type ([4]; oligonucleotide 200 nM, DNA-1 15 nM, cooled from 94° C. to 54° C. or kept at 37° C. (24 hours, 48 hours))
5′-d(GCGTTTTTTGCT)-3′: unmodified DNA antisense strand, SEQ ID NO: 5 (unmodified DNA)	52	48 °C and 52 °C	–	–	–	–
PNA20: PNA 20-mer H-(Lys)ggcatgttcatcatcagtaa(Lys)-NH2 (GGCATGTTCATCATCAGTAA; all peptide nucleic acid (PNA); Lys residue at N- and C-terminus, C-terminal amide)	–	–	observed	the occurrence of strand invasion was not confirmed	the occurrence of strand invasion was not observed	did not cause strand invasion
